# Values joined by “and” are separate entries in the source; they are usually repeats but may differ in a detail not shown here. Identical values can stand only once.
# Molecular target: human O-GlcNAcase (Homo sapiens (Human), UniProt O60502)
# Experiment: Assay for determination of KI values for inhibition of O-GlcNAcase activity
# Format: biochemical
# Details: purified human O-GlcNAcase 0.7 nM; substrate 2 mM 4-Methylumbelliferyl N-acetyl-β-D-glucosaminide; pH 7.0; room temperature; Cheng-Prusoff; read-out: hOGA Ki
# Procedure: Assay for Determination of KI Values for Inhibition of O-GlcNAcase Activity
# Experimental procedure for kinetic analyses: Enzymatic reactions were carried out in a reaction containing 50 mM NaH2PO4, 100 mM NaCl and 0.1% BSA (pH 7.0) using 2 mM 4-Methylumbelliferyl N-acetyl-β-D-glucosaminide dihydrate (Sigma M2133) dissolved in ddH2O, as a substrate. The amount of purified human O-GlcNAcase enzyme used in the reaction was 0.7 nM. Test compound of varying concentrations was added to the enzyme prior to initiation of the reaction. The reaction was performed at room temperature in a 96-well plate and was initiated with the addition of substrate. The production of fluorescent product was measured every 60 sec for 45 min with a Tecan Infinite M200 plate-reader with excitation at 355 nm and emission detected at […], with 4-Methylumbelliferone (Sigma M1381) used to produce a standard curve. The slope of product production was determined for each concentration of compound tested and plotted, using standard curve fitting algorithms for sigmoidal dose response curves. The values for a four parameter logistic curve fit of the data were determined. KI values were determined using the Cheng-Prusoff equation; the Km of O-GlcNAcase for substrate was 0.2 mM.
# human O-GlcNAcase, sequence (O60502 whole entry): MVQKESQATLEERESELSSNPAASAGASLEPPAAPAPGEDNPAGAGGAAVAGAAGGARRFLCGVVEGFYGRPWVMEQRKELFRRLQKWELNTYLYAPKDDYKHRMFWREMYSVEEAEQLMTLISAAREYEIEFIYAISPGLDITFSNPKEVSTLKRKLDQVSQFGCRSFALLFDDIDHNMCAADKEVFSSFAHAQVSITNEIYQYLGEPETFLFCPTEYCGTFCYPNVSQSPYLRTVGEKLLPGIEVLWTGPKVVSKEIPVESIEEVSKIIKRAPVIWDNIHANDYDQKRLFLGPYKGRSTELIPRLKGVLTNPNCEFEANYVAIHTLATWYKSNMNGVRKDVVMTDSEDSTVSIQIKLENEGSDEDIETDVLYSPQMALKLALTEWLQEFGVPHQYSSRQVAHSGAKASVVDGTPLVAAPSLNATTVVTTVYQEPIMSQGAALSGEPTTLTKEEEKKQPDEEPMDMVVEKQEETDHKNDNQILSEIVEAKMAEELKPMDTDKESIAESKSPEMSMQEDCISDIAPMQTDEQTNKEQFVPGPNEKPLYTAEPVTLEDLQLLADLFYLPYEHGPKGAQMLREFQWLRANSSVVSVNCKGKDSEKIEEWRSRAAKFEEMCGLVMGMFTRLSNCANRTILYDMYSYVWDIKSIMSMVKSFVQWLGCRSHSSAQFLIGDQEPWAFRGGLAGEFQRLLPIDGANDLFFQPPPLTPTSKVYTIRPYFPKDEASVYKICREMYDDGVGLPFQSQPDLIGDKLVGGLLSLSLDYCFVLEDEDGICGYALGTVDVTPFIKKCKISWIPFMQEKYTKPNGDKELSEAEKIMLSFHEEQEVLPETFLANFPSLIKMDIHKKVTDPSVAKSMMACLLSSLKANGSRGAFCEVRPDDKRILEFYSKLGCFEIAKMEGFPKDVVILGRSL
row,SMILES,Ki
1,"COc1ccc(C=C2CCN(Cc3cnc(NC(C)=O)s3)CC2)cc1OC [Example 1, N-(5-((4-(3,4-dimethoxybenzylidene)piperidin-1-yl)methyl)thiazol-2-yl)acetamide]",0.392 nM
2,"CC(=O)Nc1ncc(CN2CCC(=Cc3ccc(F)nc3)CC2)s1 [Example 2, N-(5-((4-((6-fluoropyridin-3-yl)methylene)piperidin-1-yl)methyl)thiazol-2-yl)acetamide]",2.08 nM
3,"CC(=O)Nc1ncc(CN2CCC(=Cc3ccc(O)nc3)CC2)s1 [Example 3, N-(5-((4-((6-hydroxypyridin-3-yl)methylene)piperidin-1-yl)methyl)thiazol-2-yl)acetamide]",1.09 nM
4,"CC(=O)Nc1ncc(CN2CCC(=Cc3ccc(OC(=O)OC(C)(C)C)cc3)CC2)s1 [Example 5, 4-((1-((2-acetamidothiazol-5-yl)methyl)piperidin-4-ylidene)methyl)phenyl tert-butyl carbonate]",3.53 nM
5,"CC(=O)Nc1ncc(CN2CCC(=Cc3ccc(N)nc3)CC2)s1 [Example 6, N-[5-({4-[(6-aminopyridin-3-yl)methylidene]piperidin-1-yl}methyl)-1,3-thiazol-2-yl]acetamide]",0.635 nM
6,"CC(=O)Nc1ncc(CN2CCC(=Cc3cccc(CO)c3)CC2)s1 [Example 7, N-(5-((4-(3-(hydroxymethyl)benzylidene)piperidin-1-yl)methyl)thiazol-2-yl)acetamide]",0.69 nM
7,"CC(=O)Nc1ncc(CN2CCC(=Cc3cn[nH]c3)CC2)s1 [Example 8, N-(5-((4-((1H-pyrazol-4-yl)methylene)piperidin-1-yl)methyl)thiazol-2-yl)acetamide]",0.387 nM
8,"CC(=O)Nc1ncc(CN2CCC(=Cc3ccc(C(N)=O)cc3)CC2)s1 [Example 9, 4-((1-((2-acetamidothiazol-5-yl)methyl)-piperidin-4-ylidene)methyl)benzamide]",0.294 nM
9,"CC(=O)Nc1ncc(CN2CCC(=Cc3cccc(CC(N)=O)c3)CC2)s1 [Example 10, 2-(3-((1-((2-acetamidothiazol-5-yl)methyl)-piperidin-4-ylidene)methyl)phenyl) acetamide]",0.614 nM
10,"CC(=O)Nc1ncc(CN2CCC(=Cc3ccc(OC(F)(F)F)cc3)CC2)s1 [Example 11, N-(5-((4-(4-(trifluoromethoxy)benzylidene)-piperidin-1-yl)methyl)thiazol-2-yl)acetamide]",3.15 nM
11,"CCc1ccc(C=C2CCN(Cc3cnc(NC(C)=O)s3)CC2)cc1 [Example 12, N-(5-((4-(4-ethylbenzylidene)piperidin-1-yl)methyl)thiazol-2-yl)acetamide]",0.703 nM
12,"CC(=O)Nc1ncc(CN2CCC(=Cc3ccc(C)cc3)CC2)s1 [Example 13, N-(5-((4-(4-methylbenzylidene)piperidin-1-yl)methyl)thiazol-2-yl)acetamide]",0.741 nM
13,"CCOc1ccc(C=C2CCN(Cc3cnc(NC(C)=O)s3)CC2)cc1 [Example 14, N-(5-((4-(4-ethoxybenzylidene)piperidin-1-yl)methyl)thiazol-2-yl)acetamide]",1.45 nM
14,"CC(=O)Nc1ncc(CN2CCC(=Cc3cncnc3)CC2)s1 [Example 15, N-(5-((4-(pyrimidin-5-ylmethylene)piperidin-1-yl)methyl)thiazol-2-yl)acetamide]",3.37 nM
15,"COc1cccc(C=C2CCN(Cc3cnc(NC(C)=O)s3)CC2)c1OC [Example 16, N-[5-({4-[(2,3-dimethoxyphenyl)methylidene]piperidin-1-yl}methyl)-1,3-thiazol-2-yl]acetamide]",3.4 nM
16,"CC(=O)Nc1ncc(CN2CCC(=Cc3ccc(S(=O)(=O)N(C)C)cc3)CC2)s1 [Example 17, N-(5-((4-(4-(N,N-dimethylsulfamoyl)benzylidene)piperidin-1-yl)methyl)thiazol-2-yl)acetamide]",0.0954 nM
17,"CC(=O)Nc1ncc(CN2CCC(=Cc3ccc4[nH]ccc4c3)CC2)s1 [Example 18, N-(5-{[4-(1H-indol-5-ylmethylidene)piperidin-1-yl]methyl}-1,3-thiazol-2-yl)acetamide]",0.427 nM
18,"CC(=O)Nc1ncc(CN2CCC(=Cc3ccc4c(c3)OCO4)CC2)s1 [Example 19, N-(5-{[4-(1,3-benzodioxol-5-ylmethylidene)piperidin-1-yl]methyl}-1,3-thiazol-2-yl)acetamide]",1.03 nM
19,"CC(=O)Nc1ncc(CN2CCC(=Cc3ccc4c(c3)OCCO4)CC2)s1 [Example 20, N-(5-{[4-(2,3-dihydro-1,4-benzodioxin-6-ylmethylidene)piperidin-1-yl]methyl}-1,3-thiazol-2-yl)acetamide]",1.79 nM

row,SMILES,Ki
1,"CC(=O)Nc1ncc(CN2CCC(=Cc3ccc4c(c3)CNC4=O)CC2)s1 [Example 21, N-(5-((4-((1-oxoisoindolin-5-yl)methylene)piperidin-1-yl)methyl)thiazol-2-yl)acetamide]",0.268 nM
2,"COc1cc(C=C2CCN(Cc3cnc(NC(C)=O)s3)CC2)ccc1O [Example 22, N-[5-({4-[(4-hydroxy-3-methoxyphenyl)methylidene]piperidin-1-yl}methyl)-1,3-thiazol-2-yl]acetamide]",0.634 nM
3,"COc1ccc(C=C2CCN(Cc3cnc(NC(C)=O)s3)CC2)cc1O [Example 23, N-[5-({4-[(3-hydroxy-4-methoxyphenyl)methylidene]piperidin-1-yl}methyl)-1,3-thiazol-2-yl]acetamide]",1.51 nM
4,"COC(=O)c1ccc(C=C2CCN(Cc3cnc(NC(C)=O)s3)CC2)cc1 [Example 24, methyl 4-((1-((2-acetamidothiazol-5-yl)methyl)piperidin-4-ylidene)methyl)benzoate]",1.37 nM
5,"CC(=O)Nc1ncc(CN2CCC(=Cc3ccc(CF)cc3)CC2)s1 [Example 26, N-(5-((4-(4-(fluoromethyl)benzylidene)piperidin-1-yl)methyl)thiazol-2-yl)acetamide]",0.167 nM and 0.0753 nM
6,"CC(=O)Nc1ncc(CN2CCC(=Cc3ccc(CCF)cc3)CC2)s1 [Example 27, N-(5-((4-(4-(2-fluoroethyl)-benzylidene)piperidin-1-yl)methyl)thiazol-2-yl)acetamide]",0.411 nM
7,"CC(=O)N(C)c1ncc(CN2CCC(=Cc3ccc(CCF)cc3)CC2)s1 [Example 28, N-(5-((4-(4-(2-fluoroethyl)benzylidene)-piperidin-1-yl)methyl)thiazol-2-yl)-N-methylacetamide]",5.71 nM
8,"CC(=O)Nc1ncc(CN2CCC(=Cc3ccc(C(=O)O)cc3)CC2)s1 [Example 29, 4-[(1-{[2-(acetylamino)-1,3-thiazol-5-yl]methyl}piperidin-4-ylidene)methyl]benzoic acid]",0.324 nM
9,"CNC(=O)c1ccc(C=C2CCN(Cc3cnc(NC(C)=O)s3)CC2)cc1 [Example 30, 4-[(1-{[2-(acetylamino)-1,3-thiazol-5-yl]methyl}piperidin-4-ylidene)methyl]-N-methylbenzamide]",0.43 nM
10,"CC(=O)Nc1ncc(CN2CCC(=Cc3ccc(C(=O)N(C)C)cc3)CC2)s1 [Example 31, 4-((1-((2-acetamidothiazol-5-yl)methyl)piperidin-4-ylidene)methyl)-N,N-dimethylbenzamide]",0.117 nM
11,"CC(=O)Nc1ncc(CN2CCC(=Cc3ccc(F)cc3)CC2)s1 [Example 32, N-[5-({4-[(4-fluorophenyl)methylidene]piperidin-1-yl}methyl)-1,3-thiazol-2-yl]acetamide]",2.7 nM
12,"CC(=O)Nc1ncc(CN2CCC(=Cc3ccccc3)CC2)s1 [Example 33, N-(5-{[4-(phenyl-methylidene)piperidin-1-yl]methyl}-1,3-thiazol-2-yl)acetamide]",1.75 nM
13,"CC(=O)Nc1ncc(CN2CC/C(=C/c3ccccc3)C[C@@H]2C)s1 [Example 34, (S,Z)-N-(5-{(4-benzylidene-2-methylpiperidin-1-yl)methyl)thiazol-2-yl)acetamide]",1.04 nM
14,"CC(=O)Nc1ncc(CN2CC/C(=C/c3ccccc3)C[C@H]2C)s1 [Example 35, (R,Z)-N-(5-((4-benzylidene-2-methylpiperidin-1-yl)methyl)thiazol-2-yl)acetamide]",56.6 nM
15,"CC(=O)Nc1ncc(CN2CC/C(=C\c3ccccc3)C[C@H]2C)s1 [Example 36, (R,E)-N-(5-((4-benzylidene-2-methylpiperidin-1-yl)methyl)thiazol-2-yl)acetamide]",412 nM
16,"CC(=O)Nc1ncc(CN2CC/C(=C\c3ccccc3)C[C@@H]2C)s1 [Example 37, (S,E)-N-(5-((4-benzylidene-2-methylpiperidin-1-yl)methyl)thiazol-2-yl)acetamide]",29.8 nM
17,"COc1ccc(/C=C2/CCN(Cc3cnc(NC(C)=O)s3)[C@@H](C)C2)cc1 [Example 38, (S,Z)-N-(5-((4-(4-methoxybenzylidene)-2-methylpiperidin-1-yl)methyl)thiazol-2-yl)acetamide]",0.287 nM
18,"COc1ccc(/C=C2\CCN(Cc3cnc(NC(C)=O)s3)[C@H](C)C2)cc1 [Example 39, (R,E)-N-(5-((4-(4-methoxybenzylidene)-2-methylpiperidin-1-yl)methyl)thiazol-2-yl)acetamide]",126 nM
19,"COc1ccc(/C=C2/CCN(Cc3cnc(NC(C)=O)s3)[C@H](C)C2)cc1 [Example 40, (R,Z)-N-(5-((4-(4-methoxybenzylidene)-2-methylpiperidin-1-yl)methyl)thiazol-2-yl)acetamide]",71.2 nM

# From US10913733B2, “Substituted piperidines thiazolyl acetamides as glycosidase inhibitors and uses thereof” (priority 2015, dated 2021)
